Legend:
Assay type in all cases: in vivo
[1] = test system: Capsella bursa-pastoris; test: Post-emergence foliage spray, pot culture, fresh weight inhibition (Tables 151-206; 20 days)
Method: (§1) The above weeds were cultivated by a pot culture method. […] Full and uniform weed seeds were selected, soaked in warm water at 25° C. for 6 hours, and germinated in a 28° C. biochemical incubator (darkness). The weed seeds that had just germinatedwere evenly placed on the surface of the soil and then covered with 0.5-1 cm soil according to the sizes of seeds.
(§2) The technical materials were all dissolved in acetone, and diluted with an aqueous solution containing 0.1% emulsifier Tween-80. The dilution is performed as required.
(§3) A ratio of the active ingredient A to the active ingredient B and amounts thereof in each group depends on the characteristics and toxicity of the two agents, as well as the main application purpose of a corresponding formulation. Based on the pre-tests in this study, the dosage of the active ingredient A and B applied alone and in combination were shown in the tables. Water containing the solvent and emulsifier same with the above groups but free of the agents was used as a blank control.
(§4) In the stage of weeds with 3˜4 leaves, the weeds were thinned out to maintain 15 weeds per pot and 45 weeds for each treatment, then continued to be cultured to 4˜5 leaves stage of grassy weeds, 5˜6 leaves stage of broadleaf weeds, and treated.
(§5) The well-cultured weeds were evenly placed on a platform with an area of 0.5 m^2, and a solution of agents was sprayed on the stems and leaves thereof by the 3WP-2000-type walking spray tower at a dosage of 450 kg/ha and at a spray pressure of 0.3 MPa. After all the solution was sprayed, the valve was closed. After 30 seconds, the door of the spray tower was opened, and the nutritional bowl was taken out. Then the valve was opened, and the spray tube was cleaned by spraying 50 ml of water.
(§6) A pot-culture method was employed. For the cultivation of weeds, please refer to the Section 1.1), and “Pesticide guidelines for laboratory bioactivity tests—herbicides”. As to a method for applying agents, please refer to the section 2.3.2), that is, a foliage treatment was employed. After the treatment, the weeds were routinely cultured in a greenhouse.
(§7) A method for investigating absolute number was employed, wherein whole seedlings of survival weeds were cut off with a blade along the soil surface, and the fresh weight of the weeds was weighed with an analytical balance. For dead weeds, the fresh weight thereof was zero.
(§8) Wherein, in the formula, X represented the fresh weight inhibition rate of the active ingredient A in a dosage of P, and Y represented the fresh weight inhibition rate of the active ingredient B in a dosage of Q.

[2] = test system: Amaranthus retroflexus; test: as above
Method: as §1, §2, §3, §4, §5, §6, §7, §8

[3] = test system: Digitaria sanguinalis; test: as above
Method: (§9) Table 151-206: Digitaria sanguinalis, Amaranthus retroflexus, Conyza Canadensis, Capsella bursa-pastoris, Eleusine indica were collected in Huangdao of Shandong Province, Sinapis arvensis were collected in Sixian of Anhui Province, Alopecurus japonicus were collected in Tianchang of Anhui Province, Veronica didyma were collected in Siyang of Jiangsu Province.
as §1
(§10) The culture was carried out in a controllable sunlight greenhouse at 20 to 30° C., in natural light, and relative humidity of 57% to 72%.
as §2, §3
(§11) Table 1-48, 51-98, 101-148, 151-206: […] per treatment, that is, a total of 60 weeds were treated in one treatment.
as §4, with “Table 151-206: The agents were used for only once in the experiment. In” for “In”
as §5, §6, §7
(§12) Table 151-206: The investigation was performed after 20 days of the treatment for only once.
(§13) Theoretical fresh weight inhibition rate of a combination of two active ingredients in each group was calculated by the Gowing method (E0=X+Y−X*Y/100), and then compared with an actually measured inhibition rate (E), thereby effect of the combination (hereafter referred to as combined effect) on weeds was evaluated: the value of E-E0, which was greater than 10%, corresponded to a synergistic effect, the value of E-E0, which was less than −10%, corresponded to an antagonistic effect, and the value of E-E0, which was from −10% to 10%, corresponded to an additional effect.

[4] = test system: Sinapis arvensis; test: as above
Method: as §9, §1, §10, §2, §3, §11
as §4, with “Table 151-206: The agents were used for only once in the experiment. In” for “In”
as §5, §6, §7, §12, §13

[5] = test system: Eleusine indica; test: as above
Method: as §9, §1, §10, §2, §3, §11
as §4, with “Table 151-206: The agents were used for only once in the experiment. In” for “In”
as §5, §6, §7, §12, §13

[6] = test system: Alopecurus japonicus; test: as above
Method: as §9, §1, §10, §2, §3, §11
as §4, with “Table 151-206: The agents were used for only once in the experiment. In” for “In”
as §5, §6, §7, §12, §13

[7] = test system: Chloris virgata; test: Post-emergence foliage spray, pot culture, fresh weight inhibition (Tables 1-48, 51-98, 101-148; 24 days)
Text: (§14) Table 1-48, 51-98, 101-148: Echinochloa crusgalli var. zelayensis, Eclipta prostrate, Galium aparine L., Alopecurus aequalis, Alopecurus japonicus, Lindernia procumbens, Veronica persica^1, Malachium aquaticum, Beckmannia syzigachne, Stellaria media were collected in Huai'an of Jiangsu Province; Commelina communis, Sonchus arvensis, Setaria glauca, Chloris virgata, Setaria faberi, Sonchus oleraceus L., Echinochloa oryzoides, Cirsium setosum, Xanthium strumarium were collected in Qiqiha'er of Heilongjiang Province; Sinapis arvensis, Veronica persica^2 were collected in Zhumadian of Henan Province; Ludwigia prostrate, Ammannia arenaria were collected in Zhuji of Zhejiang Province; Amaranthus retrojlexus, Descurainia sophia, Digitaria sanguinalis, Setaria viridis, Conyza Canadensis, Capsella bursa-pastoris, Eleusine indica, Ipomoea purpurea, Abutilon theophrasti, Chenopodium album, Acalypha australis, Solanum nigrum were collected in Qingdao of Shandong Province; Echinochloa caudate were collected in Pingluo of Ningxia Province.
as §1, §10, §2, §3, §11
as §4, with “Table 1-48, 51-98, 101-148: The agents were used for only once in the experiment. In” for “In”, “5˜6” for “4˜5”, “6˜7” for “5˜6”
as §5, §6, §7
(§15) Table 1-48, 51-98, 101-148, 207-216: The investigation was performed after 24 days of the treatment for only once.

[8] = test system: Eleusine indica; test: as above
Text: as §14, §1, §10, §2, §3, §11
as §4, with “Table 1-48, 51-98, 101-148: The agents were used for only once in the experiment. In” for “In”, “5˜6” for “4˜5”, “6˜7” for “5˜6”
as §5, §6, §7, §15

[9] = B alone 75 g a.i./ha, 20 days after treatment
[10] = B alone 150 g a.i./ha, 20 days after treatment
[11] = B alone 300 g a.i./ha, 20 days after treatment
[12] = B alone 600 g a.i./ha, 20 days after treatment

CP(=O)(O)CCC(N)C(=O)O (stereo not shown) [glufosinate ammonium]
Control effect (%) of B applied alone in corresponding dose ([1]; B 75 g a.i./ha, 20 days): 2.1% | Control effect (%) of B applied alone in corresponding dose ([1]; B 150 g a.i./ha, 20 days): 8.7% | Control effect (%) of B applied alone in corresponding dose ([1]; B 300 g a.i./ha, 20 days): 15.3% | Control effect (%) of B applied alone in corresponding dose ([1]; B 600 g a.i./ha, 20 days): 34.5% | Control effect (%) of B applied alone in corresponding dose [1, 9]: 2.1% | Control effect (%) of B applied alone in corresponding dose [1, 10]: 8.7% | Control effect (%) of B applied alone in corresponding dose [1, 11]: 15.3% | Control effect (%) of B applied alone in corresponding dose [1, 12]: 34.5% | Control effect (%) of B applied alone in corresponding dose ([2]; B 75 g a.i./ha, 20 days): 10.2% | Control effect (%) of B applied alone in corresponding dose ([2]; B 150 g a.i./ha, 20 days): 19.6% | Control effect (%) of B applied alone in corresponding dose ([2]; B 300 g a.i./ha, 20 days): 28.6% | Control effect (%) of B applied alone in corresponding dose ([2]; B 600 g a.i./ha, 20 days): 54.1% | Control effect (%) of B applied alone in corresponding dose [2, 9]: 10.2% | Control effect (%) of B applied alone in corresponding dose [2, 10]: 19.6% | Control effect (%) of B applied alone in corresponding dose [2, 11]: 28.6% | Control effect (%) of B applied alone in corresponding dose [2, 12]: 54.1%

O=C(O)CNCP(=O)(O)O [glyphosate]
Control effect (%) of B applied alone in corresponding dose ([3]; B 75 g a.i./ha, 20 days): 12.3% | Control effect (%) of B applied alone in corresponding dose ([3]; B 150 g a.i./ha, 20 days): 24.6% | Control effect (%) of B applied alone in corresponding dose ([3]; B 300 g a.i./ha, 20 days): 43.5% | Control effect (%) of B applied alone in corresponding dose ([3]; B 600 g a.i./ha, 20 days): 76.4% | Control effect (%) of B applied alone in corresponding dose [3, 9]: 12.3% | Control effect (%) of B applied alone in corresponding dose [3, 10]: 24.6% | Control effect (%) of B applied alone in corresponding dose [3, 11]: 43.5% | Control effect (%) of B applied alone in corresponding dose [3, 12]: 76.4% | Control effect (%) of B applied alone in corresponding dose ([4]; B 75 g a.i./ha, 20 days): 2.5% | Control effect (%) of B applied alone in corresponding dose ([4]; B 150 g a.i./ha, 20 days): 9.4% | Control effect (%) of B applied alone in corresponding dose ([4]; B 300 g a.i./ha, 20 days): 19.8% | Control effect (%) of B applied alone in corresponding dose ([4]; B 600 g a.i./ha, 20 days): 37.2% | Control effect (%) of B applied alone in corresponding dose [4, 9]: 2.5% | Control effect (%) of B applied alone in corresponding dose [4, 10]: 9.4% | Control effect (%) of B applied alone in corresponding dose [4, 11]: 19.8% | Control effect (%) of B applied alone in corresponding dose [4, 12]: 37.2% | Control effect (%) of B applied alone in corresponding dose ([5]; B 75 g a.i./ha, 20 days): 6.9% | Control effect (%) of B applied alone in corresponding dose ([5]; B 150 g a.i./ha, 20 days): 13.6% | Control effect (%) of B applied alone in corresponding dose ([5]; B 300 g a.i./ha, 20 days): 21.3% | Control effect (%) of B applied alone in corresponding dose ([5]; B 600 g a.i./ha, 20 days): 68.9% | Control effect (%) of B applied alone in corresponding dose [5, 9]: 6.9% | Control effect (%) of B applied alone in corresponding dose [5, 10]: 13.6% | Control effect (%) of B applied alone in corresponding dose [5, 11]: 21.3% | Control effect (%) of B applied alone in corresponding dose [5, 12]: 68.9% | Control effect (%) of B applied alone in corresponding dose ([6]; B 75 g a.i./ha, 20 days): 7.6% | Control effect (%) of B applied alone in corresponding dose ([6]; B 150 g a.i./ha, 20 days): 19.5% | Control effect (%) of B applied alone in corresponding dose ([6]; B 300 g a.i./ha, 20 days): 30.8% | Control effect (%) of B applied alone in corresponding dose ([6]; B 600 g a.i./ha, 20 days): 66.9% | Control effect (%) of B applied alone in corresponding dose [6, 9]: 7.6% | Control effect (%) of B applied alone in corresponding dose [6, 10]: 19.5% | Control effect (%) of B applied alone in corresponding dose [6, 11]: 30.8% | Control effect (%) of B applied alone in corresponding dose [6, 12]: 66.9%

CS(=O)(=O)c1ccc(C(=O)C2C(=O)CCCC2=O)c([N+](=O)[O-])c1 [mesotrione]
Control effect (%) of B applied alone in corresponding dose ([7]; B 15 g a.i./ha): 6.5% | Control effect (%) of B applied alone in corresponding dose ([7]; B 30 g a.i./ha): 13.4% | Control effect (%) of B applied alone in corresponding dose ([7]; B 60 g a.i./ha): 38.3% | Control effect (%) of B applied alone in corresponding dose ([7]; B 120 g a.i./ha): 75.2% | Control effect (%) of B applied alone in corresponding dose ([8]; Table 82, 15 g a.i./ha): 4.0% | Control effect (%) of B applied alone in corresponding dose ([8]; Table 82, 30 g a.i./ha): 10.9% | Control effect (%) of B applied alone in corresponding dose ([8]; Table 82, 60 g a.i./ha): 36.9% | Control effect (%) of B applied alone in corresponding dose ([8]; Table 82, 120 g a.i./ha): 75.0%

CS(=O)(=O)c1ccc(C(=O)C2C(=O)CCCC2=O)c(Cl)c1COCC(F)(F)F [tembotrione]
Control effect (%) of B applied alone in corresponding dose ([7]; B 3.75 g a.i./ha): 4.0% | Control effect (%) of B applied alone in corresponding dose ([7]; B 7.5 g a.i./ha): 12.3% | Control effect (%) of B applied alone in corresponding dose ([7]; B 15 g a.i./ha): 41.0% | Control effect (%) of B applied alone in corresponding dose ([7]; B 30 g a.i./ha): 73.4% | Control effect (%) of B applied alone in corresponding dose ([8]; Table 83, 3.75 g a.i./ha): 5.4% | Control effect (%) of B applied alone in corresponding dose ([8]; Table 83, 7.5 g a.i./ha): 12.3% | Control effect (%) of B applied alone in corresponding dose ([8]; Table 83, 15 g a.i./ha): 39.7% | Control effect (%) of B applied alone in corresponding dose ([8]; Table 83, 30 g a.i./ha): 73.1%

— US20220264878A1, “HERBICIDAL COMPOSITION CONTAINING R-TYPE PYRIDYLOXY CARBOXYLIC ACID DERIVATIVE AND USE THEREOF” (Qingdao Kingagroot Chemical Compound Co., Ltd., priority 2019, published 2022)
